Laboratory results as given in patent US20220315567A1 (priority 2016, published 2022).
Where “and” joins values, the source holds several entries; their conditions need not be identical. Identical values can stand only once. Counter-ions that a name gives are not always drawn. Like-named read-outs stand apart in the source and are kept apart here.

Columns and labels:
[1] = biological target: T1, human OPRM1 (μ, MOR) (Homo sapiens, UniProt P35372); assay: cell-based; conditions: for Emax: OPRM1, read-out: β-Arrestin Emax; for EC50: PathHunter human OPRM1 Arrestin CHO-K1 cell line, read-out: β-Arrestin EC50
T1 construct: host or cells: CHO-K1
T1 sequence (P35372 whole entry): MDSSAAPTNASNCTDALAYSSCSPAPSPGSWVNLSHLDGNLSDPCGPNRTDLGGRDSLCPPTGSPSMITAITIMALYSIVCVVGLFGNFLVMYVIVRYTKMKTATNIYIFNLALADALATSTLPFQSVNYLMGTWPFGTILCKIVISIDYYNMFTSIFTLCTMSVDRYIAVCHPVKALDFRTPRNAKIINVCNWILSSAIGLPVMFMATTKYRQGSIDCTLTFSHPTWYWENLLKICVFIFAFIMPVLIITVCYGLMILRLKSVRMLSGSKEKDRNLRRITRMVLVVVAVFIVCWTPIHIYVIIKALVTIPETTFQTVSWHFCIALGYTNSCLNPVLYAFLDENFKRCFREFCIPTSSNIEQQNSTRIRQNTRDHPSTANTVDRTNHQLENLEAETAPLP
Procedure: The Discoverx PathHunter® β-Arrestin assay is used to measure β-arrestin-2 activity. The technology is based on Enzyme Fragment Complementation (EFC) with β-galactosidase (β-Gal) as the reporter. […] EA is fused to Q-arrestin-2, and ED is fused to the C-terminus of the GPCR of interest. When a ligand binds and the GPCR is activated, Q-arrestin-2 is recruited to the receptor resulting in an ED/EA complementation, restoring f-Gal activity, which is measured using chemiluminescence. For this assay, the PathHunter human OPRM1 (μ, MOR) Arrestin CHO-K1 cell line was used.

[2] = biological target: T1, human OPRM1 (μ, MOR); type: cell-based; conditions: for ΔRA of compound: relative activity from EC50 and Emax of β-arrestin vs cAMP, lower RA = more G-protein biased
Procedure: In certain embodiments, the ability of a compound to activate G-protein or β-arrestin is not an on/off switch for a given pathway, but rather a continuous function. To capture this, each compound is measured for activity in cell assays that are linked to β-arrestin recruitment and G-protein signaling. By comparing the activity between these two measures (accounting for both EC50 and maximal response reached, Emax) a relative activity (RA) value is determined.
In the case of MOR it is desirable to have high activation of the G-protein pathway while reducing activation of β-arrestin. In the case of the formula above, this means a lower RA.

[3] = biological target: T1, human OPRM1 (μ, MOR); assay: cell-based; conditions: for Emax: OPRM1, read-out: cAMP Emax; for EC50: PathHunter human OPRM1 Arrestin CHO-K1 cell line, read-out: cAMP EC50
Procedure: G-protein signaling was measured via second messenger cAMP modulation. Detection of cAMP modulation was accomplished in the PathHunter human OPRM1 (μ, MOR) Arrestin CHO-K1 cell line using the Dynamic2 cAMP Kit from Cisbio.

With `CN(C)C(CNC(=O)NC1CCc2ccccc2C1)c1ccsc1` (stereo not drawn) [Compound 10a, 1-(2-(Dimethylamino)-2-(thiophen-3-yl)ethyl)-3-(1,2,3,4-tetrahydronaphthalen-2-yl)urea hydrochloride] the Emax [1] was 3.33%, the EC50 [1] was > 100000 nM and the “Bias Factor (ΔRA of compound relative to ΔRA of DAMGO) × 10” value [2] was <−14.83. For the same molecule, the ΔRA of compound [2] was <−2.96, the Emax [3] was 85.5% and the EC50 [3] was 4 nM.

In the case of `CNC(CNC(=O)N1Cc2cccc(F)c2C1)c1ccsc1` (stereo not drawn) [Compound 80], the “β-Arrestin Emax” value [1] is reported as 25.2%, the EC50 [1] is reported as 1400 nM and the “Bias Factor (ΔRA of compound relative to ΔRA of DAMGO) × 10” value [2] is reported as −6.64. It also gave a ΔRA of compound [2] of −2.14, an Emax [3] of 103% and an EC50 [3] of 41 nM.

With `CN(C)C(CNC(=O)N1CCCc2cc(F)ccc21)c1ccccc1` (stereo not drawn) [Compound 70a] the Emax [1] was 5.3%, the EC50 [1] was 11000 nM and the “Bias Factor (ΔRA of compound relative to ΔRA of DAMGO) × 10” value [2] was −10.82. It also gave a ΔRA of compound [2] of −2.56, an Emax [3] of 90.3% and an EC50 [3] of 512 nM.

In the case of `CNC(CNC(=O)N1Cc2ccccc2C1)c1ccsc1` (stereo not drawn) [Compound 78], the “β-Arrestin Emax” value [1] is reported as 12.8%, the EC50 [1] is reported as > 100000 nM and the “Bias Factor (ΔRA of compound relative to ΔRA of DAMGO) × 10” value [2] is reported as <−14.83. For the same molecule, the ΔRA of compound [2] was <−2.96, the “cAMP Emax” value [3] was 104.0% and the EC50 [3] was 362 nM.

`CN(C)C(CNC(=O)N(C)C1CCCc2ccccc21)c1ccsc1` (stereo not drawn) [Compound 13a, 3-(2-(Dimethylamino)-2-(thiophen-3-yl)ethyl)-1-methyl-1-(1,2,3,4-tetrahydronaphthalen-1-yl)urea hydrochloride] was tested, and the Emax [1] was 11.3%, the EC50 [1] was 1680 nM and the “Bias Factor (ΔRA of compound relative to ΔRA of DAMGO) × 10” value [2] was −8.39. For the same molecule, the ΔRA of compound [2] was −2.3, the Emax [3] was 95.3% and the EC50 [3] was 68 nM.

`COc1ccc(C(CNC(=O)N2CC[C@@H](c3ccccc3)C2)N(C)C)cc1` (stereo partly drawn) [Compound 42] was tested, and the Emax [1] was < 1%, the EC50 [1] was > 100000 nM and the “Bias Factor (ΔRA of compound relative to ΔRA of DAMGO) × 10” value [2] was <−14.83. The ΔRA of compound [2] was <−2.96, the Emax [3] was 21.9% and the EC50 [3] was 7430 nM.

With `CN(C)C(CNC(=O)N1Cc2ccc(F)cc2C1)c1ccc(F)cc1Cl` (stereo not drawn) [Compound 17a, N-(2-(2-Chloro-4-fluorophenyl)-2-(dimethylamino)ethyl)-5-fluoroisoindoline-2-carboxamide hydrochloride] the Emax [1] was 27%, the EC50 [1] was 5120 nM and the “Bias Factor (ΔRA of compound relative to ΔRA of DAMGO) × 10” value [2] was −12.08. The ΔRA of compound [2] was −2.69, the Emax [3] was 111% and the EC50 [3] was 43 nM.

With `CN(C)C(CNC(=O)N1Cc2ccccc2C1)c1ccc(F)cc1Cl` (stereo not drawn) [Compound 14a, N-(2-(2-Chloro-4-fluorophenyl)-2-(dimethylamino)ethyl)isoindoline-2-carboxamide hydrochloride] the Emax [1] was 61.2%, the EC50 [1] was 3960 nM and the “Bias Factor (ΔRA of compound relative to ΔRA of DAMGO) × 10” value [2] was −5.91. It also gave a ΔRA of compound [2] of −2.07, an Emax [3] of 102% and an EC50 [3] of 56 nM.

For `COc1ccc(C(CNC(=O)N2Cc3ccc(F)cc3C2)N(C)C)cc1` (stereo not drawn) [Compound 16a, N-(2-(Dimethylamino)-2-(4-methoxyphenyl)ethyl)-5-fluoroisoindoline-2-carboxamide hydrochloride], the Emax [1] was 12.2%, the EC50 [1] was 950 nM and the “Bias Factor (ΔRA of compound relative to ΔRA of DAMGO) × 10” value [2] was −9.60. The ΔRA of compound [2] was −2.44, the Emax [3] was 91.9% and the EC50 [3] was 26 nM.

In the case of `CN(C)C1(CNC(=O)N2Cc3ccc(F)cc3C2)CCCCC1` [Compound 46], the Emax [1] is reported as 13.6%, the EC50 [1] is reported as 10100 nM and the “Bias Factor (ΔRA of compound relative to ΔRA of DAMGO) × 10” value [2] is reported as −7.08. For the same molecule, the ΔRA of compound [2] was −2.19, the Emax [3] was 109% and the EC50 [3] was 522 nM.

`CNC(CNC(=O)N1Cc2cccc(F)c2C1)c1ccsc1` (stereo not drawn) [Compound 81] was tested, and the “β-Arrestin Emax” value [1] was 8.2%, the EC50 [1] was > 100000 nM and the “Bias Factor (ΔRA of compound relative to ΔRA of DAMGO) × 10” value [2] was <−14.83. The ΔRA of compound [2] was <−2.96, the “cAMP Emax” value [3] was 91.6% and the EC50 [3] was 14 nM.

For `CN(C)C(CNC(=O)N[C@H]1CCc2ccccc2C1)c1ccsc1` (stereo partly drawn) [Compound 51], the “β-Arrestin Emax” value [1] was <1%, the EC50 [1] was > 100000 nM and the “Bias Factor (ΔRA of compound relative to ΔRA of DAMGO) × 10” value [2] was <−14.83. For the same molecule, the ΔRA of compound [2] was <−2.96, the “cAMP Emax” value [3] was 64.9% and the EC50 [3] was 29 nM.

With `CN(C)C(CNC(=O)N1Cc2ccc(F)cc2C1)c1ccsc1` (single isomer, unassigned) [2a-ent-(+), (+)—N-(2-(Dimethylamino)-2-(thiophen-3-yl)ethyl)-5-fluoroisoindoline-2-carboxamide hydrochloride] the EC50 [1] was 1080 nM and 1010 nM, the “β-Arrestin Emax” value ([1]; hydrochloride) was 6.57, 13.7% and the “Bias Factor (ΔRA of compound relative to ΔRA of DAMGO) × 10” value ([2]; hydrochloride) was −9.24. For the same molecule, the ΔRA of compound ([2]; hydrochloride) was −2.40, the EC50 [3] was 18 nM and 58 nM and the “cAMP Emax” value ([3]; hydrochloride) was 99.5, 95.4%.

`COc1ccc(C(CNC(=O)N2Cc3ccccc3C2)N(C)C)cc1` (stereo not drawn) [Compound 15a, N-(2-(Dimethylamino)-2-(4-methoxyphenyl)ethyl)isoindoline-2-carboxamide hydrochloride] was tested, and the Emax [1] was 44.2%, the EC50 [1] was 1370 nM and the “Bias Factor (ΔRA of compound relative to ΔRA of DAMGO) × 10” value [2] was −8.71. For the same molecule, the ΔRA of compound [2] was −2.35, the Emax [3] was 108% and the EC50 [3] was 15 nM.

In the case of `CN(C)C1(CNC(=O)N2Cc3ccc(F)cc3C2)CCCC1` [Compound 63], the Emax [1] is reported as < 1%, the EC50 [1] is reported as > 100000 nM and the “Bias Factor (ΔRA of compound relative to ΔRA of DAMGO) × 10” value [2] is reported as <−14.83. The ΔRA of compound [2] was <−2.96, the Emax [3] was 87.9% and the EC50 [3] was 2510 nM.

In the case of `CN(C)C(CNC(=O)NC1CCCc2c(O)cccc21)c1ccsc1` (stereo not drawn) [Compound 59], the Emax [1] is reported as 61%, the EC50 [1] is reported as 160 nM and the “Bias Factor (ΔRA of compound relative to ΔRA of DAMGO) × 10” value [2] is reported as −1.95. For the same molecule, the ΔRA of compound [2] was −1.67, the Emax [3] was 108% and the EC50 [3] was 6 nM.

In the case of `CN(C)[C@H](CCNC(=O)N1CC[C@@H](c2ccccc2)C1)c1ccsc1` [Compound 76], the Emax [1] is reported as < 1%, the EC50 [1] is reported as > 100000 nM and the “Bias Factor (ΔRA of compound relative to ΔRA of DAMGO) × 10” value [2] is reported as <−14.83. For the same molecule, the ΔRA of compound [2] was <−2.96, the Emax [3] was 33% and the EC50 [3] was 1760 nM.

With `CN(C)C(CNC(=O)N1Cc2ccc(F)cc2C1)c1ccsc1` (single isomer, unassigned; (-)) [2a-ent-(−), (−)-N-(2-(Dimethylamino)-2-(thiophen-3-yl)ethyl)-5-fluoroisoindoline-2-carboxamide hydrochloride] the EC50 [1] was > 100000 nM, the “β-Arrestin Emax” value ([1]; hydrochloride) was <1% and the “Bias Factor (ΔRA of compound relative to ΔRA of DAMGO) × 10” value ([2]; hydrochloride) was <−14.83. For the same molecule, the ΔRA of compound ([2]; hydrochloride) was <−2.96, the EC50 [3] was 12 nM and 15 nM and the “cAMP Emax” value ([3]; hydrochloride) was 55.5, 30.4%.

`CN(C)C(CNC(=O)N1Cc2cc(F)c(F)cc2C1)c1ccsc1` (stereo not drawn) [Compound 6a, N-(2-(dimethylamino)-2-(thiophen-3-yl)ethyl)-5,6-difluoroisoindoline-2-carboxamide hydrochloride] was tested, and the Emax [1] was < 1%, the EC50 [1] was > 100000 nM and the “Bias Factor (ΔRA of compound relative to ΔRA of DAMGO) × 10” value [2] was <−14.83. The ΔRA of compound [2] was <−2.96, the Emax [3] was 21.9% and the EC50 [3] was 9 nM.

For `CN(C)C(CNC(=O)N1CCCc2cc(F)ccc21)c1ccsc1` (stereo not drawn) [Compound 7a, N-(2-(dimethylamino)-2-(thiophen-3-yl)ethyl)-6-fluoro-3,4-dihydroquinoline-1(2H)-carboxamide hydrochloride], the Emax [1] was < 1%, the EC50 [1] was > 100000 nM and the “Bias Factor (ΔRA of compound relative to ΔRA of DAMGO) × 10” value [2] was <−14.83. For the same molecule, the ΔRA of compound [2] was <−2.96, the Emax [3] was 92.1% and the EC50 [3] was 407 nM.

In the case of `CN(C)C(CNC(=O)N(C)[C@@H]1CCCc2ccccc21)c1ccsc1` (stereo partly drawn) [Compound 45], the Emax [1] is reported as 8.1%, the EC50 [1] is reported as > 100000 nM and the “Bias Factor (ΔRA of compound relative to ΔRA of DAMGO) × 10” value [2] is reported as <−14.83. The ΔRA of compound [2] was <−2.96, the Emax [3] was 101% and the EC50 [3] was 276 nM.
